Data on 14 compounds can be found in ChEMBL document CHEMBL4622864, “Synthesis and biological evaluation of quinoxaline derivatives as specific c-Met kinase inhibitors” (Bioorg Med Chem Lett, 2020).

Data set [1] has as its system MKN-45. In words: Antiproliferative activity against human MKN45 cells overexpressing c-MET assessed as reduction in cell proliferation. It is filed as functional, cell-based.
Data set [2] concerns MKN-45. In words: Antitumor activity against human MKN45 cells xenografted in nude mouse assessed as tumor growth inhibition at 20 mg/kg, po administered once daily for 14 days relative to control. It is filed as functional. Conditions: MKN-45, po, 336 h, read-out: TGI.
In data set [3] the target is Tyrosine-protein kinase Lck (Homo sapiens) (UniProt P06239). In words: Inhibition of LCK (unknown origin) at 100 nM relative to control.
Data set [4] relates to Tyrosine-protein kinase ABL1 (Homo sapiens), P00519 [T315I]. Kind of data set: Inhibition of ABL T315I mutant (unknown origin) 100 nM relative to control.
Data set [5] addresses Insulin-like growth factor 1 receptor (Homo sapiens) (UniProt P08069). Kind of data set: Inhibition of IGF1R (unknown origin) at 10 nM relative to control.
Data set [6] has as its target Proto-oncogene tyrosine-protein kinase receptor Ret (Homo sapiens) (UniProt P07949). Kind of data set: Inhibition of RET (unknown origin) at 100 nM relative to control.
Data set [7] in a line: Metabolic stability in rat microsomes assessed as parent compound remaining measured after 30 mins. Conditions: read-out: Stability. It is filed as ADME, Microsome.
Data set [8] deals with T1, Hepatocyte growth factor receptor (Homo sapiens, UniProt P08581). In words: Inhibition of c-Met (unknown origin) by ADP-Glo kinase assay. Background: ADP-Glo turns the ADP formed in a reaction into a luminescent signal.
Data set [9] concerns Tyrosine-protein kinase ABL1 (Homo sapiens), P00519 [T315I]. Kind of data set: Inhibition of ABL T315I mutant (unknown origin) 10 nM relative to control.
The target of data set [10] is Macrophage-stimulating protein receptor (Homo sapiens) (UniProt Q04912). In words: Inhibition of RON (unknown origin) at 10 nM relative to control.
Data set [11] deals with MKN-45. Kind of data set: Antitumor activity against human MKN45 cells xenografted in po dosed nude mouse assessed as tumor growth inhibition administered once daily for 14 days. It is filed as functional, organism-based. A general note: A xenograft is tissue or cells of one species grown in another, often human tumour cells in immunodeficient mice.
Data set [12] concerns the target Vascular endothelial growth factor receptor 3 (Homo sapiens) (UniProt P35916). In words: Inhibition of VEGFR3 (unknown origin) at 10 nM relative to control.
Data set [13] concerns the target ALK tyrosine kinase receptor (Homo sapiens) (UniProt Q9UM73). Kind of data set: Inhibition of ALK (unknown origin) at 10 nM relative to control.
The target of data set [14] is Vascular endothelial growth factor receptor 3 (Homo sapiens) (UniProt P35916). In words: Inhibition of VEGFR3 (unknown origin) at 100 nM relative to control.
In data set [15] the target is Tyrosine-protein kinase receptor UFO (Homo sapiens) (UniProt P30530). Kind of data set: Inhibition of AXL (unknown origin) at 100 nM relative to control.
The target in data set [16] is Macrophage-stimulating protein receptor (Homo sapiens) (UniProt Q04912). In words: Inhibition of RON (unknown origin) at 100 nM relative to control.
A further data set deals with CYP2C9 (Homo sapiens, UniProt P11712). In words: Inhibition of CYP2C9 (unknown origin) at 10 uM relative to control. It is filed as ADME.
Data set [17] addresses Platelet-derived growth factor receptor beta (Homo sapiens) (UniProt P09619). Kind of data set: Inhibition of human PDGFRbeta at 100 nM relative to control.
Data set [18] deals with T1, Hepatocyte growth factor receptor. In words: Inhibition of human c-MET at 10 nM relative to control.
Another data set concerns the target CYP2D6 (Homo sapiens, UniProt P10635). In words: Inhibition of CYP2D6 (unknown origin) at 10 uM relative to control. It is filed as ADME.
In data set [19] the target is Receptor-type tyrosine-protein kinase FLT3 (Homo sapiens) (UniProt P36888). In words: Inhibition of FLT3 (unknown origin) at 100 nM relative to control.
Data set [20] concerns the target Fibroblast growth factor receptor 1 (Homo sapiens) (UniProt P11362). Kind of data set: Inhibition of FGFR1 (unknown origin) at 10 nM relative to control.
The target in data set [21] is Proto-oncogene tyrosine-protein kinase Src (Homo sapiens) (UniProt P12931). Kind of data set: Inhibition of c-SRC (unknown origin) at 10 nM relative to control.
Data set [22] has the same target. In words: Inhibition of c-SRC (unknown origin) at 100 nM relative to control.
Data set [23] can be described thus: Metabolic stability in human microsomes assessed as parent compound remaining measured after 30 mins. Conditions: read-out: Stability. It is filed as ADME, Microsome.
For data set [24], the target named is Macrophage colony-stimulating factor 1 receptor (Homo sapiens) (UniProt P07333). In words: Inhibition of CSF1R (unknown origin) at 100 nM relative to control.
Data set [25] is described as follows: Metabolic stability in mouse microsomes assessed as parent compound remaining measured after 30 mins. Conditions: read-out: Stability. It is filed as ADME, Microsome.
For the next data set, the target named is CYP3A4 (Homo sapiens, UniProt P08684). Kind of data set: Inhibition of CYP3A4 (unknown origin) at 10 uM relative to control. It is filed as ADME.
Data set [26] concerns the target Macrophage colony-stimulating factor 1 receptor (Homo sapiens) (UniProt P07333). Kind of data set: Inhibition of CSF1R (unknown origin) at 10 nM relative to control.
Data set [27] deals with Platelet-derived growth factor receptor alpha (Homo sapiens) (UniProt P16234). Kind of data set: Inhibition of PDGFRalpha (unknown origin) at 10 nM relative to control.
Data set [28] has as its target T1, Hepatocyte growth factor receptor. In words: Inhibition of human c-MET at 100 nM relative to control.
Data set [29] has as its target Fibroblast growth factor receptor 1 (Homo sapiens) (UniProt P11362). Kind of data set: Inhibition of FGFR1 (unknown origin) at 100 nM relative to control.
Data set [30] concerns the target Mast/stem cell growth factor receptor Kit (Homo sapiens) (UniProt P10721). In words: Inhibition of C-kit (unknown origin) at 100 nM relative to control.
In a further data set the target is CYP1A2 (Homo sapiens, UniProt P05177). In words: Inhibition of CYP1A2 (unknown origin) at 10 uM relative to control. It is filed as ADME.
The target in data set [31] is Mast/stem cell growth factor receptor Kit (Homo sapiens) (UniProt P10721). In words: Inhibition of C-kit (unknown origin) at 10 nM relative to control.
The target in data set [32] is Platelet-derived growth factor receptor alpha (Homo sapiens) (UniProt P16234). In words: Inhibition of PDGFRalpha (unknown origin) at 100 nM relative to control.
The target of data set [33] is Angiopoietin-1 receptor (Homo sapiens) (UniProt Q02763). In words: Inhibition of human TIE2 at 10 nM relative to control.
For a further data set, the target named is CYP2C19 (Homo sapiens, UniProt P33261). In words: Inhibition of CYP2C19 (unknown origin) at 10 uM relative to control. It is filed as ADME.
The target in data set [34] is Angiopoietin-1 receptor (Homo sapiens) (UniProt Q02763). In words: Inhibition of human TIE2 at 100 nM relative to control.
For data set [35], the target named is Fibroblast growth factor receptor 2 (Homo sapiens) (UniProt P21802). Kind of data set: Inhibition of FGFR2 (unknown origin) at 100 nM relative to control.
Data set [36] has as its target Tyrosine-protein kinase receptor UFO (Homo sapiens) (UniProt P30530). In words: Inhibition of AXL (unknown origin) at 10 nM relative to control.
Data set [37] addresses Vascular endothelial growth factor receptor 1 (Homo sapiens) (UniProt P17948). Kind of data set: Inhibition of VEGFR1 (unknown origin) at 100 nM relative to control.
Data set [38] has as its target Vascular endothelial growth factor receptor 2 (Homo sapiens) (UniProt P35968). In words: Inhibition of human VEGFR2 at 10 nM relative to control.

T1 sequence (P08581 whole entry): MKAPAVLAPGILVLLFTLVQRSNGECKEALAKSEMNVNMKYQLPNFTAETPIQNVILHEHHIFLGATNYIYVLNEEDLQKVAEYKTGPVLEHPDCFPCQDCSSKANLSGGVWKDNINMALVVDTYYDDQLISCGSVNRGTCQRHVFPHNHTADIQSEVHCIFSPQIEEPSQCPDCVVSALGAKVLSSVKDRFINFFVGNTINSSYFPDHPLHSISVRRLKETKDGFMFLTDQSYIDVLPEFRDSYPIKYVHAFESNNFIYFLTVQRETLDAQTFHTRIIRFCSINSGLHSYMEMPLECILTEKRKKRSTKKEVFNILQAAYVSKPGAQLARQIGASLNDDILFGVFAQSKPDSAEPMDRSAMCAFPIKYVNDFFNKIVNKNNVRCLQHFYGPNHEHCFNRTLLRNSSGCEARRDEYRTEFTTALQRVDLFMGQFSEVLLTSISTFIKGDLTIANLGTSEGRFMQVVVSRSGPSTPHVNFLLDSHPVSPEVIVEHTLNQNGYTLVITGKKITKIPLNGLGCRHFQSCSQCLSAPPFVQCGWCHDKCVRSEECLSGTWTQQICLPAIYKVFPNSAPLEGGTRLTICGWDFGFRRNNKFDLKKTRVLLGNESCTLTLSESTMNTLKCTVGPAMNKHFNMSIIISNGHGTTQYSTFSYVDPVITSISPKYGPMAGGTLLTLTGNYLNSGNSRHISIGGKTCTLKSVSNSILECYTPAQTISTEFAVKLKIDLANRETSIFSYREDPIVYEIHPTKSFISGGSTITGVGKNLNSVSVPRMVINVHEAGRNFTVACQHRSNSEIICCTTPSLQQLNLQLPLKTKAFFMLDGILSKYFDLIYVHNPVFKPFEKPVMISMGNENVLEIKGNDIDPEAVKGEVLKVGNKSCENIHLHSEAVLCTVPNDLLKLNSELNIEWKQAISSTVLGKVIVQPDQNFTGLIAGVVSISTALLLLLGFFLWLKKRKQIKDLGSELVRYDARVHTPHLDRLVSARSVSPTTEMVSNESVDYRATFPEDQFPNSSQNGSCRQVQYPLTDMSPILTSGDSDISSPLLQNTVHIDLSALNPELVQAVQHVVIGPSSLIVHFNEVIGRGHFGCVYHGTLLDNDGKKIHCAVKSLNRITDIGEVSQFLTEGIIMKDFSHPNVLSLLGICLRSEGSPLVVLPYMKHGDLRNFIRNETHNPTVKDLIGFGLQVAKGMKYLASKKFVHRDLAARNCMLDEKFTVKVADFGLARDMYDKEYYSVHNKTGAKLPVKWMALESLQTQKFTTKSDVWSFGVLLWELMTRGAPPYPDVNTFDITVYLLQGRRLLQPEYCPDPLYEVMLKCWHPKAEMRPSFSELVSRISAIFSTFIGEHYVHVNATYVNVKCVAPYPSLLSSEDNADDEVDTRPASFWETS
Sequence of Macrophage-stimulating protein receptor (Homo sapiens) (Q04912 25-304 limits assumed): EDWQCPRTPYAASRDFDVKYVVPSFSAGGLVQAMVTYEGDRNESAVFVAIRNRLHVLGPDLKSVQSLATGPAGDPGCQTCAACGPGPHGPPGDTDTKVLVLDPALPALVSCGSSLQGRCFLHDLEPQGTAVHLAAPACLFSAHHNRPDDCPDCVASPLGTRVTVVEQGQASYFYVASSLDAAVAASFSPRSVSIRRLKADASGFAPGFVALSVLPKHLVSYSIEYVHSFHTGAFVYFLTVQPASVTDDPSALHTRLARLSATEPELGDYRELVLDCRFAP
Sequence of Macrophage-stimulating protein receptor (Homo sapiens) (Q04912 310-1400 limits assumed): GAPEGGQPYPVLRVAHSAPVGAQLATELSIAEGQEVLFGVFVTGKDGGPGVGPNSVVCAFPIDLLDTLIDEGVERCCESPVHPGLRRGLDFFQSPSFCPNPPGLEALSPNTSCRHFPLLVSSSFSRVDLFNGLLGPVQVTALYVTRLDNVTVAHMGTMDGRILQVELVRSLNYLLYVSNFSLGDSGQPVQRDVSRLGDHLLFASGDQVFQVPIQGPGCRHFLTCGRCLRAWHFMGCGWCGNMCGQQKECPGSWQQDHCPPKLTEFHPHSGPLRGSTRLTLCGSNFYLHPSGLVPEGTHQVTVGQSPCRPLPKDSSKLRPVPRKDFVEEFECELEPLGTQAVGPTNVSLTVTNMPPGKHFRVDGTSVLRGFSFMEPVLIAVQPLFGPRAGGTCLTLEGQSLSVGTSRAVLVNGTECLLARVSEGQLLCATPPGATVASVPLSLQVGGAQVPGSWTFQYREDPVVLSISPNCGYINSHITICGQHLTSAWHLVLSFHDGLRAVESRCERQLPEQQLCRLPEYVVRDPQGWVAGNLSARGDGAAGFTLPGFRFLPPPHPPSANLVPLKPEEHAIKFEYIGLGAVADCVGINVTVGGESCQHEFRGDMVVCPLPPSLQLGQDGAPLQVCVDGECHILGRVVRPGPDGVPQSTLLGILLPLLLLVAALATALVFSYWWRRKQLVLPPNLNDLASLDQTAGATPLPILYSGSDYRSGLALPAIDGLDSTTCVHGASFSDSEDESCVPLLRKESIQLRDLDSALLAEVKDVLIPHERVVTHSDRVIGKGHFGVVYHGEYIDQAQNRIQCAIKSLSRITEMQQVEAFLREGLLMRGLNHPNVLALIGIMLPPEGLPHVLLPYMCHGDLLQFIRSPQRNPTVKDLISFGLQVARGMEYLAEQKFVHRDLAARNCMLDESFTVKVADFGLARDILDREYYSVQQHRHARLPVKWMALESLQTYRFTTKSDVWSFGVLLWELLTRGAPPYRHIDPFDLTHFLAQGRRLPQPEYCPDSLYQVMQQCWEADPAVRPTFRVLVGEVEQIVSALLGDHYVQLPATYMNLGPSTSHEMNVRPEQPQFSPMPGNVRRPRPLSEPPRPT
Sequence of Tyrosine-protein kinase receptor UFO (Homo sapiens) (P30530 whole entry): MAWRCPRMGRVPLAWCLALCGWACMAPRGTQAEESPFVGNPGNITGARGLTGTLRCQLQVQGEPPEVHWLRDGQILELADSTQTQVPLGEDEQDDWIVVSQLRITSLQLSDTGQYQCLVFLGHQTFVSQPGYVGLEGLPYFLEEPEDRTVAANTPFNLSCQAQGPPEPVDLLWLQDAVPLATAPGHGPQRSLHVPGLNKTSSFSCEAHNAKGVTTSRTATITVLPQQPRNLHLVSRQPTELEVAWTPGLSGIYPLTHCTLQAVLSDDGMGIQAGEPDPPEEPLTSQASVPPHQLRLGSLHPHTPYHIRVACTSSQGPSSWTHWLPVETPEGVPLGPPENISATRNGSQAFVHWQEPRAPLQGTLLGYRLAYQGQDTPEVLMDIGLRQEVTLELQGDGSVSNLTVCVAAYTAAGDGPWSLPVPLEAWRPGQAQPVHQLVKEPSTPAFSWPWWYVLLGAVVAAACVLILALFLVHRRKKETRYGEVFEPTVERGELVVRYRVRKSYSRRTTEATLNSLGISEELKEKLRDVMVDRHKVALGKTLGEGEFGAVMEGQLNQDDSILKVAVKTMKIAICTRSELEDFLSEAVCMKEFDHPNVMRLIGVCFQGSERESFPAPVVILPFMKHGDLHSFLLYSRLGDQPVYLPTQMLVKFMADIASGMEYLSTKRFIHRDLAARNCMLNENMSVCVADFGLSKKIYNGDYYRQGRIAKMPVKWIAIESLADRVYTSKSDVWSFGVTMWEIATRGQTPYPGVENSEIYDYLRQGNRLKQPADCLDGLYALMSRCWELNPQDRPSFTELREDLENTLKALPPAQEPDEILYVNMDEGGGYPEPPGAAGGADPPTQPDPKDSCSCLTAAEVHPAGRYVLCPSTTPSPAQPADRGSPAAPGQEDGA
Sequence of Fibroblast growth factor receptor 1 (Homo sapiens) (P11362 22-822 limits assumed): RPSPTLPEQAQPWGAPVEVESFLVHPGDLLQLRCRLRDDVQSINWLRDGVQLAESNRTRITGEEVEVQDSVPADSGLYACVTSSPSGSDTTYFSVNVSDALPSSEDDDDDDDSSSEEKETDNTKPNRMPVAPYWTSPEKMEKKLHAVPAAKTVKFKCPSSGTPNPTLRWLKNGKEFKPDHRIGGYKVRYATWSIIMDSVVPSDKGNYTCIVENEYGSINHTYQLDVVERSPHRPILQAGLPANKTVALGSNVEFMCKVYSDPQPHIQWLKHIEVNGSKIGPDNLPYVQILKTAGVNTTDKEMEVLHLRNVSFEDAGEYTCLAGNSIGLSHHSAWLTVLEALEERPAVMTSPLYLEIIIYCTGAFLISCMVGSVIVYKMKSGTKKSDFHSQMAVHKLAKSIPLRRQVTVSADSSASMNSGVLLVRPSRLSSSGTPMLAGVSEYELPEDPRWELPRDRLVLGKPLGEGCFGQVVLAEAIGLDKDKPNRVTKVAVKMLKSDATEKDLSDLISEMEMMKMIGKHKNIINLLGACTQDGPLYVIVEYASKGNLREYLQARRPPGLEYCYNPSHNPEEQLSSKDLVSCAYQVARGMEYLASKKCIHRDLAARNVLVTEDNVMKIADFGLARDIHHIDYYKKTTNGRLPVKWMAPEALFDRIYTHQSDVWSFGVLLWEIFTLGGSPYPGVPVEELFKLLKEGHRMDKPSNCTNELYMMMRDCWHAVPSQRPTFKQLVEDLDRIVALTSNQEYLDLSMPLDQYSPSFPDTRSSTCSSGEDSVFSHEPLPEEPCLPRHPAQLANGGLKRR
Sequence of Proto-oncogene tyrosine-protein kinase Src (Homo sapiens) (P12931 2-536 limits assumed): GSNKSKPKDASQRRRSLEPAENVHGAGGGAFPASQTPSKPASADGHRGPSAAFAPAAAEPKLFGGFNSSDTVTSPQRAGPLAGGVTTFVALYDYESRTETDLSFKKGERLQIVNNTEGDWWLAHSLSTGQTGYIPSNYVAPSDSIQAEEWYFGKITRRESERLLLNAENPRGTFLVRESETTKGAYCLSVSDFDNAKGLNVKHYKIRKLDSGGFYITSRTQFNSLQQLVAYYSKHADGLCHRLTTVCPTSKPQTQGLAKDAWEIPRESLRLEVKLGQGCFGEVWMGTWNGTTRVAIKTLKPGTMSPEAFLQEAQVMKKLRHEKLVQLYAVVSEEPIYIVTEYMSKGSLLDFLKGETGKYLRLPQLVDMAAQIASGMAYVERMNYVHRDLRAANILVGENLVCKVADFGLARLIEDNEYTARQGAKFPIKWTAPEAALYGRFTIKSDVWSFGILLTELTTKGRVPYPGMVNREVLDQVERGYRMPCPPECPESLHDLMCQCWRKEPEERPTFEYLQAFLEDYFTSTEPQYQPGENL

Broadly, the IC50 is the midpoint of a concentration-inhibition curve. In the case of `C[C@@H](Oc1cc(-c2cnn(C3CCNCC3)c2)cnc1N)c1c(Cl)ccc(F)c1Cl` [CRIZOTINIB], the IC50 in the data set on MKN-45 [1] lay in the range of 0.0091 to 0.038 µM. In addition, in the data set with MKN-45 [2], the inhibition in vivo at 20 mg/kg was 29%.

In the case of `C[C@@H](Oc1ccc2ncc(-c3cnn(C)c3)nc2c1)c1c(Cl)ccc(F)c1Cl`, the IC50 with MKN-45 [1] was 0.735 µM.

Consider `C[C@@H](Oc1cc(-c2cnn(C3CCNCC3)c2)cnc1F)c1c(Cl)ccc(F)c1Cl`, for which, in the data set with MKN-45 [1], the IC50 stood at 0.114 µM.

As for `C[C@@H](Oc1cncc(-c2cnn(C3CCN(S(C)(=O)=O)CC3)c2)c1)c1c(Cl)ccc(F)c1Cl`, the 50% inhibitory concentration (IC50) in the data set on MKN-45 [1] stood at 0.243 µM.

As for `C[C@@H](Oc1cncc(-c2cnn(C3CCN(CC(N)=O)CC3)c2)c1)c1c(Cl)ccc(F)c1Cl`, in the data set on MKN-45 [1], the IC50 turned out to be 0.113 µM.

Turning to `CC(=O)N1CCC(n2cc(-c3cncc(O[C@H](C)c4c(Cl)ccc(F)c4Cl)c3)cn2)CC1`, the concentration for half-maximal inhibition (IC50) with MKN-45 [1] was determined as 0.117 µM.

As to `C[C@@H](Oc1ccc2ncc(-c3cnn(CCO)c3)nc2c1)c1c(Cl)ccc(F)c1Cl`, the IC50 in the data set on MKN-45 [1] was determined as 0.196 µM.

`CC(C)N1CCC(n2cc(-c3cncc(O[C@H](C)c4c(Cl)ccc(F)c4Cl)c3)cn2)CC1`: the IC50 in the data set with MKN-45 [1] was 0.132 µM.

`CC(=O)N1CCC(n2cc(-c3cnc(F)c(O[C@H](C)c4c(Cl)ccc(F)c4Cl)c3)cn2)CC1`: the concentration for half-maximal inhibition (IC50) in the data set on MKN-45 [1] worked out at 0.077 µM.

The term inhibition denotes the change of the read-out against control, counted positive when it falls. Regarding `C[C@@H](Oc1cncc(-c2cnn(C3CCNCC3)c2)c1)c1c(Cl)ccc(F)c1Cl`, the inhibition is 47% in data set [3]; 63% in [4]; -4% in data set [5]; -3% in [6]; 43% in data set [9]; -9% in data set [10]. The inhibition was -5% in data set [12]; 31% in [13]; 0% in [14]; 75% in [15]; 49% in data set [16]; -10% in [17]. In addition, the inhibition in [18] is 80%; in data set [19], 8%; in [20], -7%; in data set [21], -10%; in data set [22] it was -7%; in data set [24], 67%. Besides, the inhibition in data set [26] is 15%; in [27], 3%; in [28], 100%; in data set [29] it was -5%; in data set [30], 4%; in data set [31], 0%. The inhibition in data set [32] was -4%; in data set [33], 2%; in data set [34], 33%; in [35] it was 0%; in data set [36], 17%; in [37], -1%. For the same compound, the inhibition in data set [38] is -4%. The values for the IC50 (in the data set on MKN-45 [1]; in [8]) were 0.175 µM and 0.006 µM, respectively. Also, the remaining at 0.5 h worked out at 85% in [7], 94% in [23] and 96% in data set [25]. Moreover, in the data set on MKN-45 [11], the TGI result is “Dose-dependent effect”. In addition, in the data set on MKN-45 [2], the inhibition in vivo at 20 mg/kg is 48%. In addition, the inhibition at 10 µM on CYP2C9 worked out at 79%; on CYP2D6, 28%; on CYP3A4 it was 76%; on CYP1A2, 55%; on CYP2C19, 63%.

In the case of `C[C@@H](Oc1cncc(-c2cnn(C3CCN(C)CC3)c2)c1)c1c(Cl)ccc(F)c1Cl`, the IC50 in the data set on MKN-45 [1] came to 0.227 µM.

Turning to `C[C@H](Oc1cncc(-c2cnn(C3CCNCC3)c2)c1)c1c(Cl)ccc(F)c1Cl`, the concentration for half-maximal inhibition (IC50) in the data set with MKN-45 [1] stood at 0.797 µM; in data set [8], 0.092 µM.

For `C[C@@H](Oc1cncc(-c2cnn(C3CCN(CC4CC4)CC3)c2)c1)c1c(Cl)ccc(F)c1Cl`, the half-inhibitory concentration (IC50) in the data set with MKN-45 [1] worked out at 0.306 µM.

With `CC(=O)OCCn1cc(-c2cnc3ccc(O[C@H](C)c4c(Cl)ccc(F)c4Cl)cc3n2)cn1`, in the data set with MKN-45 [1], the IC50 was found to be 0.252 µM.
